The nature of the series: pKa of curing accelerator (dissociation constant of aqueous solution at 25° C.). The series is classed as physicochemical. The protocol:
The “pKa value” referred to in the invention is a numerical value represented by the following formula when the dissociation constant of an aqueous solution at 25° C. is denoted by “Ka”. The dissociation constant Ka of the aqueous solution is determined by, for example, measuring a hydrogen ion concentration of the aqueous solution by a pH meter and calculating concentrations of a dissociated component and an undissociated component after dissolution by the use of the resulting hydrogen ion concentration and weighed values of the solvate and water before dissolution. pKa=−log10 Ka

[1] abbreviates: aqueous solution at 25° C., values in text.
Setting [2] is: aqueous solution, of the curing accelerator, Table 1, read-out: pKa.

SMILES strings stand for the structures. “And” between values parts separate entries of the source, which are not always exact repeats. Identical values can stand only once. Like-named read-outs stand apart in the source and are kept apart here.

With `Cc1ncc[nH]1` [2-methylimidazole], the pKa turned out to be 7.9 under setting [1]; 7.88 (aqueous solution, aqueous solution at 25° C., values in text, read-out: pKa); 7.9 under setting [2].
On to `C1CCC2=NCCCN2CC1` [DBU, 1,8-diazabicyclo[5.4.0]undecene-7], for which the pKa was 12.5 under setting [1]; 12.7 and 12.5 (of the curing accelerator, Table 1).
Take `Nc1nc(N)nc(N)n1` [melamine]: the pKa came out at 5 (aqueous solution at 25° C., values in text, read-out: pKa) and 5 under setting [2].
